We go through 20 compounds from PMC3718762, “Differential Disruption of EWS-FLI1 Binding by DNA-Binding Agents” (PLoS ONE, 2013).

As a reminder, the IC50 is the concentration needed to halve the response being measured.

The target of test [1] is EWS-FLI1. The test can be described thus: AlphaScreen proximity assay, binding of recombinant EWS-FLI1 to cognate DNA oligo. Particulars: for IC50: read-out: IC50 EWS-FLI1, disruption of recombinant EWS-FLI1 binding to DNA; for Disruption of EWS-FLI1 binding compared with p53 binding in the parallel assays: EWS-FLI1 versus p53. (In Alpha technology, singlet oxygen from a donor bead excites a nearby acceptor bead.)

Test [2] addresses T1, p53 (Homo sapiens, UniProt P04637).
T1 construct: made in house; host or cells: bacteria (pGex-6P-1-p53); plasmid was a gift from Dr. Guangchao Sui
In words: AlphaScreen proximity assay (counterscreen), binding of recombinant p53 to cognate DNA oligo. The source says: An AlphaScreen assay for binding of recombinant EWS-FLI1 to DNA was previously described. Briefly, recombinant EWS-FLI1 and p53 were synthesized in bacteria transformed with pGex-6P-1-EWS-FLI1 or pGex-6P-1-p53, and bound to AlphaScreen acceptor beads. A biotinylated oligonucleotide containing two copies of the EWS-FLI1 binding motif or p53 binding motifs was bound to AlphaScreen donor beads. For EWS-FLI1, the oligo sequence was: […]. The p53 binding oligo sequence was: […]. This assay was used to screen 5,200 compounds, as previously described. IC50 values were calculated with the GraphPad Prism software package.
We developed a homogeneous AlphaScreen assay to assess the binding of recombinant EWS-FLI1 to DNA [18]. A parallel assay assessing binding of p53 to DNA was used as a counterscreen. Briefly, in these proximity assays, recombinant GST-EWS-FLI1 or GST-p53 was bound to glutathione-conjugated AlphaScreen acceptor beads, and a synthetic biotinylated oligonucleotide (oligo) containing tandem EWS-FLI1 or p53 binding sites was bound to streptavidin-conjugated AlphaScreen donor beads. Binding of GST-EWS-FLI1 or GST-p53 to the cognate oligo allows singlet oxygen transfer from donor to acceptor beads when excited at 680 nm, with resulting light emission between 520–620 nm.

The subject of test [3] is NR0B1 promoter. In words: NR0B1-Luc firefly luciferase reporter assay in A673 cells. The format is cell-based, human. Particulars: A673 cells, NR0B1-Luc versus UbC-RL. The source says:
The NR0B1 promoter was amplified from human genomic DNA using the 5′ primer- […] and 3′ primer - […]. NR0B1 promoter amplicon was cloned into the NheI and HindIII sites in the pGL.3Basic vector. The 5′ primer-[…] was used to amplify a truncated NR0B1 promoter in which the entire EWS-FLI1 binding region (GGAA repeats) was deleted to construct pGL.3b-NR0B1del. All constructs were confirmed by sequencing. All other plasmids were previously described.
Ewing sarcoma A673 cells at 50% confluence in 100 mm dishes were transfected with both 5.8 µg of pGL.3b-NR0B1 and 0.2 µg of pGL.3b-Ubc-RL reporter plasmids as above. Eight hours post-transfection, cells were trypsinized and 600 ul (2×10^5) of cells were added to each well of 24 well plates. 5 µl of different concentration of compounds or DMSO control were added to each well. Each treatment was performed in triplicate. Cells were incubated for 16 hours, then cells were lysed in 100 µl of lysis buffer and 10 µl of cell lysate was used for the dual luciferase assay. Renilla luciferase activity was used as an internal control for normalization of nonspecific transcriptional inhibition or cytotoxic effects. Experiments were repeated three times. IC50 values were calculated using Prism (Graphpad).
To determine the effect of compounds on EWS-FLI1 activity in cells, we used a reporter assay comprised of the NR0B1 promoter, a prototypical EWS-FLI1-regulated gene, driving expression of firefly luciferase. Renilla luciferase driven by the Ubiquitin C promoter (UbC-RL) was used as an internal control. Confirming prior studies, the NR0B1 promoter was verified to be highly responsive to EWS-FLI1, whereas the UbC promoter activity was not subject to regulation by EWS-FLI1 (Figure S1).
A general note: Reporter assays use an easily measured gene product as a stand-in for the process of interest.

Test [4] deals with Ewing sarcoma cells. Also on record: method as in PMID 21403840, PMID 21653923. The settings on record: prior studies ref [11], [12]; cited from earlier work.
The subject of test [5] is EWS-FLI1 downstream targets. Also on record: method as in PMID 21403840, PMID 21653923. The settings on record: prior studies ref [11], [12]; cited from earlier work.
Setting [6] is: AlphaScreen, disruption of recombinant p53 binding to DNA, read-out: IC50 p53.

Counter-ions that a name gives are not always drawn. Like-named read-outs stand apart in the source and are kept apart here.

T1 sequence (P04637 whole entry, species assumed): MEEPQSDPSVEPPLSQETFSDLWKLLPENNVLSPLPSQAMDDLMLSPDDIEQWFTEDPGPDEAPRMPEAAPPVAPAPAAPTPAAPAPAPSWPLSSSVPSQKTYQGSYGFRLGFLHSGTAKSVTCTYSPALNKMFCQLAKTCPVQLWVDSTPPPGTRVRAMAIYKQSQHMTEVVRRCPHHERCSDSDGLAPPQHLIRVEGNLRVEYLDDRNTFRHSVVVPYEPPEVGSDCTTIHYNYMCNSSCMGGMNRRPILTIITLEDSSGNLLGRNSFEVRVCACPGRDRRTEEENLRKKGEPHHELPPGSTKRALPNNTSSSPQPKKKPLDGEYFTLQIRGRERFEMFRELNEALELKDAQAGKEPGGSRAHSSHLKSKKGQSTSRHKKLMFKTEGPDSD

Consider Verteporfin, for which, in test [1], the IC50 came to 342 nM.

In the case of `O=c1c2ccccc2[se]n1-c1ccccc1` [Ebselen], the IC50 in test [2] (setting [6]) is over 10000 nM; in test [1], 631 nM. The “Separation of inhibition of the NR0B1 and UbC reporters” value in test [3] is “modulated the NR0B1 and UbC reporters equally”.

Regarding `CCN(CC)CCCC(C)Nc1c2ccc(Cl)cc2nc2ccc(OC)cc12` (stereo not drawn) [Quinacrine HCl], the IC50 in test [2] (setting [6]) turned out to be 6060 nM; in test [1], 7030 nM.

On to mithramycin, for which the “Growth of Ewing sarcoma cells” value in test [4] is reported as “inhibited”. Moreover, in test [5], the “Expression of EWS-FLI1 downstream targets” value is reported as “reduced”.

Consider `CC(C)/N=c1\cc2n(-c3ccc(Cl)cc3)c3ccccc3nc-2cc1Nc1ccc(Cl)cc1` [Clofazimine], for which the half-inhibitory concentration (IC50) is 203 nM in test [2] (setting [6]) and 202 nM in test [1].

Consider `COc1cccc2c1C(=O)c1c(O)c3c(c(O)c1C2=O)C[C@@](O)(C(=O)CO)C[C@@H]3O[C@H]1C[C@H](N)[C@H](O)[C@H](C)O1` [Doxorubincin], for which, in test [2], the IC50 came out at 1220 nM. Moreover, in test [1], the “Disruption of EWS-FLI1 binding compared with p53 binding in the parallel assays” value was “disrupt both EWS-FLI1 and p53 binding similarly”; the IC50 is 344 nM. Besides, in test [3], the “Separation of inhibition of the NR0B1 and UbC reporters” value is “no separation”.

On to `CN(C)c1ccc(/C=C2\C(=O)Nc3ccccc32)cc1` [DMBI], for which the figures for the half-maximal inhibitory concentration (IC50) in test [2] (setting [6]) and in test [1] were 3780 nM and 3370 nM, respectively.

As to `c1nc2nc(Nc3ccc(N4CCOCC4)cc3)nc(NC3CCCCC3)c2[nH]1` [Reversine], the 50% inhibitory concentration (IC50) in test [2] turned out to be 2710 nM; in test [1], 2420 nM.

In the case of `N.N.[Cl][Pt][Cl]` [Cisplatin], the IC50 in test [2] (setting [6]) was 8870 nM. Further, in test [1], the “Disruption of EWS-FLI1 binding compared with p53 binding in the parallel assays” value is “disrupt both EWS-FLI1 and p53 binding similarly”; the IC50 was found to be 5390 nM.

`COc1cccc2c1C(=O)c1c(O)c3c(c(O)c1C2=O)C[C@@](O)(C(C)=O)C[C@@H]3O[C@H]1C[C@H](N)[C@H](O)[C@H](C)O1` [Daunorubicin]: in test [1], the “Disruption of EWS-FLI1 binding compared with p53 binding in the parallel assays” value is “disrupt both EWS-FLI1 and p53 binding similarly”; the IC50 amounted to 4480 nM.

`COc1cccc2c1C(=O)c1c(O)c3c(c(O)c1C2=O)C[C@@](O)(C(=O)CO)C[C@@H]3O[C@H]1C[C@H](N)[C@@H](O)[C@H](C)O1` [Epirubicin]: the IC50 in test [2] amounted to 389 nM; in test [1], 42 nM. In addition, the “Separation of inhibition of the NR0B1 and UbC reporters” value in test [3] is recorded as “no separation”.

In the case of `CCOc1ccc2c(c1)C(C)=CC(C)(C)N2` [Ethoxyqiun], the IC50 in test [2] (setting [6]) was found to be 484 nM; in test [1] it was 464 nM.

With `CCOc1ccc(C=C2SC(=O)N(CCN)C2=O)cc1.Cl` [Erk inihibitor], the values for the IC50 in test [2] (setting [6]) and in test [1] were over 10000 nM and 3350 nM, respectively. Further, the “Separation of inhibition of the NR0B1 and UbC reporters” value in test [3] was “modulated the NR0B1 and UbC reporters equally”.

In the case of `COc1ccc2[nH]c([S+]([O-])Cc3ncc(C)c(OC)c3C)nc2c1` (stereo not drawn) [Omeprazole], the IC50 in test [1] turned out to be 7330 nM.

On to `COc1cc2c(cc1O)CCN[C@]21CS[C@@H]2c3c(OC(C)=O)c(C)c4c(c3[C@H](COC1=O)N1[C@@H]2[C@H]2c3c(cc(C)c(OC)c3O)C[C@@H]([C@@H]1O)N2C)OCO4` [ET-743, trabectedin], for which the “Growth of Ewing sarcoma cells” value in test [4] is “inhibited”. In addition, the “Expression of EWS-FLI1 downstream targets” value in test [5] is reported as “reduced”.

As to `CC(=O)[O][Hg][c]1ccccc1` [Phenylmericuric Acetate], the figures for the half-maximal inhibitory concentration (IC50) in test [2] (setting [6]) and in test [1] were 25 nM and 16 nM, respectively.

Turning to `CCCCc1oc2ccccc2c1C(=O)c1cc(I)c(OCCN(CC)CC)c(I)c1` [Amiodarone HCl], in test [2] (setting [6]), the IC50 turned out to be 5290 nM.

With `Cn1c2ccccc2c2c3c(c4c5ccccc5n(CCC#N)c4c21)CNC3=O` [Go 6976], in test [2] (setting [6]), the half-inhibitory concentration (IC50) was 2810 nM.

`CC(C)[C@H](CO)Nc1nc(Nc2cc(N)cc(Cl)c2)c2ncn(C(C)C)c2n1` [Aminopurvalanol A]: the IC50 in test [2] (setting [6]) was determined as 1200 nM; in test [1], 1830 nM.

`CC(C)=CC[C@@H](O)C1=CC(=O)c2c(O)ccc(O)c2C1=O` [Shikonin]: the IC50 was 633 nM in test [2] and 600 nM in test [1].
